# Measured values: PubChem BioAssay AID179 (DTP/NCI, 2004)
# pEC50, pIC50: −log10 of the molar value. Calls of active or inactive are those of the source.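 Rule for the calls: active = compounds giving half or more protection of infected cells from virus-caused growth loss, again on retest; inactive = the rest.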
# Tested on: CEM cells HIV-1 protection, formazan growth assay
# Assay: NCI AIDS Antiviral Assay
# Settings: for pIC50: measured here: growth of uninfected CEM cells
# Outline: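 Five concentrations of each compound were applied to infected and uninfected human CEM cells. Protection from HIV-1 was judged from growth measured with a soluble formazan assay.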
Structure (SMILES),pEC50,pIC50,outcome
CCC1NC(N=Nc2ccc([N+](=O)[O-])cc2)(P(=O)(OC(C)C)OC(C)C)OC1=O (stereo unspecified),< 3.66,< 3.66,
NC(C(=O)O)C1=CCCCCC1 (stereo unspecified),< 3.70,< 3.70,
CCCCN=NNc1cn(C2OC(CO)C(O)C2O)c(=O)[nH]c1=O (stereo unspecified),< 3.70,< 3.70,
COc1ccccc1N=C(N)N/N=C/c1c[nH]c2ccccc12,,,inactive
Nc1ncnc2c1nc(Br)n2C(C=O)OC(C=O)CO (stereo unspecified),,,inactive
COCCOCC(=O)N(CCn1ccc(NC(c2ccccc2)(c2ccccc2)c2ccccc2)nc1=O)CCn1cnc2nc(N)[nH]c(=O)c21,4.54,4.22,
Nc1ccc2nc3n(c2c1)C(c1c(F)cccc1F)SC3 (stereo unspecified),< 3.70,3.90,
Clc1ccc(/C=N/Nc2nnc3c(n2)[nH]c2ccccc23)cc1,< 3.70,< 3.70,
O=c1c(SSc2coc3ccccc3c2=O)coc2ccccc12,< 3.70,5.29,
N#C/C(N)=C(\C#N)N=CNc1ccccc1N,< 3.70,< 3.70,
CCCNC(=O)Sc1ccccc1C(=O)NCCC(N)=O,< 5.58,,
[N-]=[N+]=NC1(c2ccccc2)C(=O)c2cccc3c2N(CCC3)C1=O (stereo unspecified),< 3.70,3.85,
OCn1nnc2ccccc21,,,inactive
O=C(O)/C(=C\c1cc2c(cc1[N+](=O)[O-])OCO2)c1cc2c(cc1Br)OCO2,< 3.70,3.96,
O=C1NC(=O)C(CCC(=O)c2ccc3ccccc3c2)C(=O)N1,< 3.96,< 3.96,
Cc1cc2nnc(C(N)=O)c(N)c2cc1C,< 3.70,< 3.70,
N#CCCCCn1cnc2c(N)ncnc21,< 3.70,< 3.70,
CC(C)(CCC(C)(C)N1OC1c1ccccc1)N1OC1c1ccccc1 (stereo unspecified),< 3.70,4.72,
COc1ccc(/C=C/c2nc(=S)[nH][nH]2)cc1OC,< 3.87,3.96,
C=CCN1CCC23c4c5ccc(O)c4OC2C(=NN=C2CCC4(O)C6Cc7ccc(O)c8c7C4(CCN6CC=C)C2O8)CCC3(O)C1C5 (stereo unspecified),< 3.70,4.98,
CC(=N\N=C\c1ccccn1)/C(C)=N/N=C(C)/C(C)=N/N=C/c1ccccn1,,,inactive
O=c1[nH]cnc2c1CN(c1ccccc1)C2,< 3.63,< 3.63,
O=c1c2ccccc2c2nccc3c4ccccc4n1c32,< 4.43,< 4.43,

Structure (SMILES),pEC50,pIC50,outcome
Cc1ccc2oc(=O)c(C#N)c(/C=C/c3ccc(Cl)cc3)c2c1,< 3.70,< 3.70,
CCOC(=O)/C(C#N)=C(N)/C(=N\Nc1cccc(C(F)(F)F)c1)C(=O)OCC,,,inactive
O=C(CCN1CCOCC1)c1ccc(Oc2ccc(F)cc2)cc1,,,inactive
CC(C)(C)OC(=O)NC(CSCc1ccc(C(=O)c2ccccc2)cc1)C(=O)N1CCN(CCCCN2c3ccccc3Sc3cc(N=[N+]=[N-])ccc32)CC1 (stereo unspecified),< 3.70,< 3.70,
COc1cc(-c2cc(=O)c3cc(Cl)cc(Cl)c3o2)cc(OC)c1OC,< 4.00,< 4.00,
COC(=O)/C=C(/C=C1/C(C#N)=C(N)N(c2ccc(Cl)cc2)C1(C)/C(=C\C(=O)OC)C(=O)OC)C(=O)OC (stereo unspecified),< 3.70,5.05,
CCOC(=O)/C(=C/c1ccc(OC)cc1)P(=O)(OCC)OCC,< 3.42,4.69,
C/C(=N\NS(=O)(=O)c1c(C)cc(C)cc1C)c1ccc[n+]([O-])n1,,,inactive
O=c1c2ccccc2n2nnc3ccc(NCCCNCCNCCCNc4ccc5nnn6c7ccccc7c(=O)c4c56)c1c32,< 7.30,7.46,
OCc1ccc(C2CC(c3ccco3)=NN2c2ccccc2)o1 (stereo unspecified),< 4.77,< 4.77,
NNC1=Cn2c(nc3ccccc32)NN1,,,inactive
CN(C)C(=O)Sc1nnc(C(C)(C)C)o1,< 3.70,< 4.00,
CC(C)(C)OC(=O)N1NC(c2ccccc2)CC1c1ccccc1 (stereo unspecified),< 3.70,4.55,
CC(=O)OC1CC2C(C)(C)C(=O)C=C[C@]2(C)C2CCC3(C)C(c4ccoc4)C(=O)C4OC43[C@]12C (stereo partly specified),,,inactive
COc1ccc2cc1-c1cc(ccc1O)CC1NCCc3cc4c(cc31)Oc1c(c(OC)c(OC)c3c1[C@H](C2)N(C)CC3)O4 (stereo partly specified),< 5.22,< 5.22,
O=C1CC2(CCNCC2)C(=O)N1N1CCCCC1,< 3.70,< 3.70,
C(=C\c1ccc2ccccc2n1)/c1cccnc1,< 3.67,4.92,
O=C(O)CCSCCCCCCCCCCSCCC(=O)O,< 4.13,< 4.13,
Cc1ccc2oc(=O)c(C#N)c(C)c2c1,< 4.60,< 4.60,
COC(=O)C1C(=O)CC[C@H]2CN3CCc4c([nH]c5ccccc45)C3CC12 (stereo partly specified),< 4.27,< 4.27,
O=C(Cn1c(-c2ccccc2)cc2ccccc21)N1CCOCC1,< 3.70,< 3.70,
Oc1ccc(N=C2CCC(=C(c3ccccc3)c3ccc(Nc4ccc(O)cc4)cc3)CC2)cc1,< 3.70,4.68,
NC1=NC2(COC(c3ccccc3)(c3ccccc3)c3ccccc3)OC(COC(c3ccccc3)(c3ccccc3)c3ccccc3)C(O)C2O1 (stereo unspecified),< 3.70,4.92,

Structure (SMILES),pEC50,pIC50,outcome
CC1=C/C(=N\NC(N)=S)C(C(O)(C(F)(F)F)C(F)(F)F)C(C)(C)C1 (stereo unspecified),< 3.70,4.05,
Cc1cc(OCC(O)CO)ccc1Cl (stereo unspecified),< 2.94,3.26,
[Au+].c1c[n-]cn1.c1ccc([PH+](c2ccccc2)c2ccccc2)cc1,< 4.86,5.20,
O=C(Nn1c(-c2ccccc2)nc2ccccc2c1=O)c1ccc(O)cc1,< 3.70,< 3.70,
COC(=O)c1c2c(cc3c1CC1(Cc4ccc(C(C)=O)cc4C1)C3)CCC2 (stereo unspecified),< 3.70,< 3.70,
N#Cc1ccc(C2NN=CC23C(=O)c2ccccc2OC3c2ccccc2)cc1 (stereo unspecified),< 3.70,4.19,
c1ccc(-c2cc(-c3cccs3)c(-c3cccs3)s2)cc1,< 3.70,4.44,
CC1(C)S[C@H](c2ccccc2C(=O)O)N[C@@H]1CC(=O)O,,,inactive
Cc1cc2c(=O)cc(-c3ccncc3)oc2c(C(N)=O)c1C,< 3.82,4.15,
O=P(O)(O)OP(=O)(O)O.[NH-]CC[NH-].[NH-]CC[NH-].[Pd+2].[Pd+2],< 3.70,3.99,
Cc1ccccc1-c1c(N)nc(N)nc1C(=O)Nc1nccs1,< 4.38,< 4.38,
Cc1cn(C2CC(N=[N+]=[N-])C(COC(=O)CCOCCCCCCCCN=[N+]=[N-])O2)c(=O)[nH]c1=O (stereo unspecified),8.20,4.19,
N#CC(C#N)=C1CCC2C(=C(C#N)C#N)CCC12 (stereo unspecified),,,inactive
N#Cc1cccc(/C=C(/C(=O)c2ccccc2)c2ccccc2)c1,< 4.77,5.02,
COC(=O)[C@]12CCC(=O)N1[C@H](C(=O)O)Cc1c2[nH]c2ccccc12,< 3.70,< 3.70,
C=C1C(=O)OC2/C=C(\C)CC/C=C(\C)CC(OC(=O)/C(=C/CO)CO)[C@@H]12 (stereo partly specified),< 3.70,6.03,
CC[P+](CC)(c1ccccc1)c1ccccc1,< 3.17,4.02,
O=C(O)c1ccc(C(=O)c2ccccc2C(=O)O)cc1,< 3.70,< 3.70,
CCCCCCCCCCSS(=O)(=O)c1ccc(C)cc1,< 4.66,5.02,
O=[N+]([O-])/C(C(Cl)=C(Cl)Cl)=C(/Nc1ccccc1)SCc1ccccc1,< 3.70,4.42,
CC1=CCC2CC1C(C(=O)c1c[nH]c3ccccc13)=NC2(C)C (stereo unspecified),< 4.09,< 4.09,
COc1ccc(SCc2cc(OC)ccc2OC)cc1,< 3.70,5.40,
Cc1nc2c(=O)n(C)c(=O)nc-2n(CCO)c1C,< 4.00,4.08,

Structure (SMILES),pEC50,pIC50,outcome
C1=CC2CC1C1C(=C3Sc4ccccc4S3)c3nccnc3C(=C3Sc4ccccc4S3)C21 (stereo unspecified),< 4.84,< 4.84,
N#CC1CC2(C1)OCCS2 (stereo unspecified),,,inactive
COc1ccc(CN2C(=S)SC(c3ccc(Cl)cc3)N2c2ccc(OC)cc2)cc1 (stereo unspecified),< 3.70,< 3.70,
CCC(C)NC1=NCC(C)S1 (stereo unspecified),< 3.70,< 3.70,
COc1ccc(CCNC(=O)Cc2ccccc2CCO)cc1OC,< 3.70,< 3.70,
S=C(N1CCN(c2ccc(Cl)c(Cl)c2)CC1)N1CCN(c2ccc(Cl)c(Cl)c2)CC1,< 3.70,5.00,
Nc1cccc(N=Nc2c(S(=O)(=O)O)cc3cc(Nc4ccc5c(O)c(N=Nc6cccc(N)c6)c(S(=O)(=O)O)cc5c4)ccc3c2O)c1,,,inactive
CC(=O)O[C@H]1CSC[C@@H](OC(C)=O)C1[N+](=O)[O-] (stereo partly specified),< 3.16,4.48,
CC(=O)OC(C(=O)NNC(=O)OC(C)(C)C)c1ccccc1 (stereo unspecified),< 3.70,< 3.70,
COCC#C[C@@]1(O)CCCCC1CC(OC)OC (stereo partly specified),< 3.70,3.95,
O=[N+]([O-])c1c(F)c(F)c2c(c1F)N(CCCCCl)c1ccccc1S2,< 3.70,5.10,
Cc1cn(C2CC(N=[N+]=[N-])C(COC(=O)CCOCCCCCCCCCl)O2)c(=O)[nH]c1=O (stereo unspecified),8.16,4.70,
Cc1ccc2c(c1)C(=O)/C(=C\c1ccccc1)CCS2(=O)=O,< 3.70,5.54,
OCCCCOC(c1ccccc1)(c1ccccc1)c1ccccc1,< 4.80,< 4.80,
Cc1cn([C@@H]2O[C@H](CO[Si](C)(C)C(C)(C)C)[C@]3(O[C@H]3C(=O)NO)[C@H]2O[Si](C)(C)C(C)(C)C)c(=O)[nH]c1=O,< 3.70,5.93,
CC(=O)n1nc(C)c(-c2onc3ccc(Cl)cc23)c1C,4.39,4.35,
CC(=O)N1CC2(CN(C(C)=O)CC3(C1)OCCO3)OCCO2,< 3.70,< 3.70,
CN(C)c1ccc(/C=C(\C#N)c2cccc(Cl)c2)cc1,< 3.70,7.20,
CCCCCCCCCC(=O)Oc1cccc2onc(C)c12,< 4.62,< 4.62,
Cc1cc(C)nc(NS(=O)(=O)c2ccc(NN=c3c4ccccc4n(C)c4ccccc34)cc2)n1,< 3.70,4.95,
O=C1CSC(=S)N1,< 2.73,3.10,
